This is an account of results in patent US20260365628A1, “SUBSTITUTED 3,4-DIHYDROQUINOLINONE INHIBITORS OF TSHR” (Septerna, Inc., priority 2022, published 2026).

The target in this assay is T1, hTSHR (Homo sapiens, UniProt P16473).
T1 construct: expressed in transfected cells
The assay can be described thus: hTSHR TR-FRET cAMP Assay (inhibition of M22-stimulated cAMP production). In kind it is cell-based. As to conditions: Expi293F Inducible cells stably expressing hTSHR; cAMP HTRF; stimulated with EC80 of anti-TSHR antibody M22; 15 min compound preincubation, 30 min at 37° C.; read-out: Activity (IC50 bins). The method in brief: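 Readout was a cAMP HTRF ratio of 655/620 nm after lysis, scaled between the EC80 M22 signal (0% inhibition) and no-agonist vehicle (100%). Frozen induced Expi293F-hTSHR cells saw test compounds (0.5% DMSO) for 15 min at 37 °C before 30 min of M22 stimulation at EC80.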

T1 sequence (P16473 21-764): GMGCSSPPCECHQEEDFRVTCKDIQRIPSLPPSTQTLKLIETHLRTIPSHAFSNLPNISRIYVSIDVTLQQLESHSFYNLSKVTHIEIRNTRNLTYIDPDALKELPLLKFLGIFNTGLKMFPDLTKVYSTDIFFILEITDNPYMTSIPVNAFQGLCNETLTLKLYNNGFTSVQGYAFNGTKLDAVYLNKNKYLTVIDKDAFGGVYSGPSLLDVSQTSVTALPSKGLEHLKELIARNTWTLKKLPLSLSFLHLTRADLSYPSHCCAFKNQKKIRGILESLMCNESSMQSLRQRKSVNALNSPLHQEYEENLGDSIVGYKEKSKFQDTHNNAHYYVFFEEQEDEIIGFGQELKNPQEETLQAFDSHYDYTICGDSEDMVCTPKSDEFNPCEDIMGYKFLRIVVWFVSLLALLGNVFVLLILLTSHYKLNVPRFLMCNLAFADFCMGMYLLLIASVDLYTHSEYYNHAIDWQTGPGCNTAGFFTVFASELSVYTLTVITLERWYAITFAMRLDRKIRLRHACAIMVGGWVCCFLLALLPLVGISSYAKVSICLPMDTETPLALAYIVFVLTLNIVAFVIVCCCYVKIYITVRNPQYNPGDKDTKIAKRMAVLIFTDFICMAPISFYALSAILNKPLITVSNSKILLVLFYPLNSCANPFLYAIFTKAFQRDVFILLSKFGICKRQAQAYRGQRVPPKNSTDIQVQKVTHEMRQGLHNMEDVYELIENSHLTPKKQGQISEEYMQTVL

A word on the IC50: it is the concentration that inhibits the measured activity by half. As for `C[C@H](c1nccc(C(F)(F)F)n1)N1C(=O)[C@@H](C)Oc2cc(NC(=O)NC(C)(C)C)ccc21` [Example 317, 1-(tert-butyl)-3-((R)-2-methyl-3-oxo-4-((R)-1-(4-(trifluoromethyl)pyrimidin-2-yl)ethyl)-3,4-dihydro-2H-benzo[b][1,4]oxazin-7-yl)urea], the IC50 lay in the range of 100 to 1000 nM. The value for `C[C@@H](c1cccc(OC(F)(F)F)n1)n1c(=O)cnc2cc(NC(=O)CCc3cccc(C(F)(F)F)c3)ccc21` [Example 318, (S)—N-(2-oxo-1-(1-(6-(trifluoromethoxy)pyridin-2-yl)ethyl)-1,2-dihydroquinoxalin-6-yl)-3-(3-(trifluoromethyl)phenyl)propanamide] was 100 to 1000 nM; that for `C[C@@H](c1cccc(Cl)c1)n1c(=O)cnc2cc(NC(=O)NC3(C)CCC3)ccc21` [Example 319, (S)-1-(1-(1-(3-chlorophenyl)ethyl)-2-oxo-1,2-dihydroquinoxalin-6-yl)-3-(1-methylcyclobutyl)urea] was 100 to 1000 nM; that for `C[C@@H](c1cccc(C(F)(F)F)c1)n1c(=O)cnc2cc(NC(=O)NC3(C)CCC3)ccc21` [Example 320, (S)-1-(1-methylcyclobutyl)-3-(2-oxo-1-(1-(3-(trifluoromethyl)phenyl)ethyl)-1,2-dihydroquinoxalin-6-yl)urea] was 100 to 1000 nM. Turning to `C[C@H]1Oc2cc(NC(=O)NC3(C)CCCC3)ccc2N(Cc2cccc(OC(F)(F)F)n2)C1=O` [Example 321, (R)-1-(2-methyl-3-oxo-4-((6-(trifluoromethoxy)pyridin-2-yl)methyl)-3,4-dihydro-2H-benzo[b][1,4]oxazin-7-yl)-3-(1-methylcyclopentyl)urea], the half-maximal inhibitory concentration (IC50) is below 100 nM.

In the case of `C[C@H]1Oc2cc(NC(=O)NC3(C)CCCC3)ccc2N([C@@H](C)c2cccc(C(F)(F)F)n2)C1=O` [Example 322, 1-((R)-2-methyl-3-oxo-4-((S)-1-(6-(trifluoromethyl)pyridin-2-yl)ethyl)-3,4-dihydro-2H-benzo[b][1,4]oxazin-7-yl)-3-(1-methylcyclopentyl)urea], the IC50 was below 100 nM. The value for `C[C@H]1Oc2cc(NC(=O)NC3(C)CCCC3)ccc2N([C@@H](C)c2cccc(OC(F)(F)F)n2)C1=O` [Example 323, 1-((R)-2-methyl-3-oxo-4-((S)-1-(6-(trifluoromethoxy)pyridin-2-yl)ethyl)-3,4-dihydro-2H-benzo[b][1,4]oxazin-7-yl)-3-(1-methylcyclopentyl)urea] was below 100 nM; that for `C[C@H]1Oc2cc(NC(=O)N[C@H]3C[C@H](C(F)(F)F)C3)ccc2N([C@@H](C)c2cccc(OC(F)(F)F)c2)C1=O` [Example 324, 1-((R)-2-methyl-3-oxo-4-((S)-1-(3-(trifluoromethoxy)phenyl)ethyl)-3,4-dihydro-2H-benzo[b][1,4]oxazin-7-yl)-3-((1r,3R)-3-(trifluoromethyl)cyclobutyl)urea] was 100 to 1000 nM; that for `C[C@H]1Oc2cc(NC(=O)N[C@H]3C[C@@H](C(F)(F)F)C3)ccc2N([C@@H](C)c2cccc(OC(F)(F)F)c2)C1=O` [Example 325, 1-((R)-2-methyl-3-oxo-4-((S)-1-(3-(trifluoromethoxy)phenyl)ethyl)-3,4-dihydro-2H-benzo[b][1,4]oxazin-7-yl)-3-((1s,3S)-3-(trifluoromethyl)cyclobutyl)urea] was 100 to 1000 nM. In the case of `C[C@H]1Oc2cc(NC(=O)NC(C)(C)C)c(F)cc2N(Cc2ccccc2)C1=O` [Example 326, (R)-1-(4-benzyl-6-fluoro-2-methyl-3-oxo-3,4-dihydro-2H-benzo[b][1,4]oxazin-7-yl)-3-(tert-butyl)urea], the IC50 was in the range of 100 to 1000 nM. Turning to `C[C@H]1Oc2cc(NC(=O)NC(C)(C)C)c(F)cc2N(Cc2cccc(C(F)F)c2)C1=O` [Example 327, (R)-1-(tert-butyl)-3-(4-(3-(difluoromethyl)benzyl)-6-fluoro-2-methyl-3-oxo-3,4-dihydro-2H-benzo[b][1,4]oxazin-7-yl)urea], the IC50 is below 100 nM. The value for `C[C@H]1Oc2cc(NC(=O)NC(C)(C)C)c(F)cc2N([C@@H](C)c2ccccc2)C1=O` [Example 328, 1-(tert-butyl)-3-((R)-6-fluoro-2-methyl-3-oxo-4-((S)-1-phenylethyl)-3,4-dihydro-2H-benzo[b][1,4]oxazin-7-yl)urea] was 100 to 1000 nM; that for `C[C@H]1Oc2c(cc(F)c(NC(=O)NC(C)(C)C)c2F)N(Cc2ccccc2)C1=O` [Example 329, (R)-1-(4-benzyl-6,8-difluoro-2-methyl-3-oxo-3,4-dihydro-2H-benzo[b][1,4]oxazin-7-yl)-3-(tert-butyl)urea] was 100 to 1000 nM. For `C[C@H]1Oc2cc(NC(=O)NC(C)(C)C)c(C(F)(F)F)cc2N(Cc2ccccc2)C1=O` [Example 330, (R)-1-(4-benzyl-2-methyl-3-oxo-6-(trifluoromethyl)-3,4-dihydro-2H-benzo[b][1,4]oxazin-7-yl)-3-(tert-butyl)urea], the IC50 was below 100 nM. The value for `C[C@H](c1ccccc1)N1C(=O)[C@@H](C)Oc2cc(NC(=O)NC(C)(C)C)ccc21` [Example 331, 1-(tert-butyl)-3-((R)-2-methyl-3-oxo-4-((R)-1-phenylethyl)-3,4-dihydro-2H-benzo[b][1,4]oxazin-7-yl)urea] was above 1000 nM; that for `Cc1cc2c(cc1NC(=O)NC(C)(C)C)O[C@H](C)C(=O)N2Cc1ccccc1` [Example 332, (R)-1-(4-benzyl-2,6-dimethyl-3-oxo-3,4-dihydro-2H-benzo[b][1,4]oxazin-7-yl)-3-(tert-butyl)urea] was 100 to 1000 nM. Take `C[C@H]1Oc2c(cc(F)c(NC(=O)NC(C)(C)C)c2F)N(Cc2cccc(OC(F)F)c2)C1=O` [Example 335, 3-tert-butyl-1-[(2R)-4-{[3-(difluoromethoxy)phenyl]methyl}-6,8-difluoro-2-methyl-3-oxo-2H-1,4-benzoxazin-7-yl]urea]: the IC50 was below 100 nM. The value for `C[C@H]1Oc2c(cc(F)c(NC(=O)NC(C)(C)C)c2F)N(Cc2cccc(C(F)F)c2)C1=O` [Example 336, (R)-1-(tert-butyl)-3-(4-(3-(difluoromethyl)benzyl)-6,8-difluoro-2-methyl-3-oxo-3,4-dihydro-2H-benzo[b][1,4]oxazin-7-yl)urea] was below 100 nM. The value for `CC(c1cc(C(F)(F)F)ccn1)n1c(=O)cnc2cc(NC(=O)NC3(C)CCC3)ccc21` (stereo not drawn) [Example 337, 1-(1-methylcyclobutyl)-3-(2-oxo-1-(1-(4-(trifluoromethyl)pyridin-2-yl)ethyl)-1,2-dihydroquinoxalin-6-yl)urea] was 100 to 1000 nM; that for `C[C@H]1Oc2cc(NC(=O)NC(C)(C)C)c(F)cc2N(Cc2cccc(OC(F)F)c2)C1=O` [Example 338, (R)-1-(tert-butyl)-3-(4-(3-(difluoromethoxy)benzyl)-6-fluoro-2-methyl-3-oxo-3,4-dihydro-2H-benzo[b][1,4]oxazin-7-yl)urea] was 100 to 1000 nM.

In the case of `C[C@@H](c1cccc(OC(F)(F)F)c1)n1c(=O)cnc2cc(NC(=O)NC(C)(C)C)c(F)cc21` [Example 339, (S)-1-(tert-butyl)-3-(7-fluoro-2-oxo-1-(1-(3-(trifluoromethoxy)phenyl)ethyl)-1,2-dihydroquinoxalin-6-yl)urea], the IC50 fell in the range of 100 to 1000 nM. The value for `C[C@H]1Oc2cc(NC(=O)NC(C)(C)C)c(F)c(F)c2N(Cc2cccc(C(F)F)c2)C1=O` [Example 340, (R)-1-(tert-butyl)-3-(4-(3-(difluoromethyl)benzyl)-5,6-difluoro-2-methyl-3-oxo-3,4-dihydro-2H-benzo[b][1,4]oxazin-7-yl)urea] was 100 to 1000 nM; that for `C[C@H]1Oc2cc(NC(=O)NC(C)(C)C)c(C#N)cc2N(Cc2ccccc2)C1=O` [Example 341, (R)-1-(4-benzyl-6-cyano-2-methyl-3-oxo-3,4-dihydro-2H-benzo[b][1,4]oxazin-7-yl)-3-(tert-butyl)urea] was 100 to 1000 nM; that for `C[C@H]1Oc2cc(NC(=O)NC(C)(C)C)c(C#N)cc2N(Cc2cccc(C(F)F)c2)C1=O` [Example 342, (R)-1-(tert-butyl)-3-(6-cyano-4-(3-(difluoromethyl)benzyl)-2-methyl-3-oxo-3,4-dihydro-2H-benzo[b][1,4]oxazin-7-yl)urea] was below 100 nM. The value for `C[C@@H](c1ccccc1)N1C(=O)CCc2cc(NC(=O)NC(C)(C)C)c(C(F)(F)F)cc21` [Example 343, (S)-1-(tert-butyl)-3-(2-oxo-1-(1-phenylethyl)-7-(trifluoromethyl)-1,2,3,4-tetrahydroquinolin-6-yl) urea] was below 100 nM. Regarding `C[C@@H](c1ccccc1)n1c(=O)cnc2cc(NC(=O)NC(C)(C)C)c(Cl)cc21` [Example 344, (S)-1-(tert-butyl)-3-(7-chloro-2-oxo-1-(1-phenylethyl)-1,2-dihydroquinoxalin-6-yl)urea], the half-inhibitory concentration (IC50) was 100 to 1000 nM. The value for `CC(C)(C)NC(=O)Nc1c(F)cc2c(c1F)CCC(=O)N2Cc1ccccc1` [Example 345, 1-(1-benzyl-5,7-difluoro-2-oxo-1,2,3,4-tetrahydroquinolin-6-yl)-3-(tert-butyl) urea] was 100 to 1000 nM; that for `C[C@@H](c1ccccc1)n1c(=O)cnc2cc(NC(=O)NC(C)(C)C)c(C(F)(F)F)cc21` [Example 346, 3-tert-butyl-1-{2-oxo-1-[(1S)-1-phenylethyl]-7-(trifluoromethyl)quinoxalin-6-yl}urea] was 100 to 1000 nM.

Turning to `Cc1cc2c(cc1NC(=O)NC(C)(C)C)ncc(=O)n2[C@@H](C)c1ccccc1` [Example 347, 3-tert-butyl-1-{7-methyl-2-oxo-1-[(1S)-1-phenylethyl]quinoxalin-6-yl}urea], the half-inhibitory concentration (IC50) lay within 100 to 1000 nM. `C[C@@H](c1ccccc1)n1c(=O)cnc2cc(NC(=O)NC(C)(C)C)c(C3CC3)cc21` [Example 348, 3-tert-butyl-1-{7-cyclopropyl-2-oxo-1-[(1S)-1-phenylethyl]quinoxalin-6-yl}urea]: the IC50 lay in the range of 100 to 1000 nM.
